These results are taken from patent US7495021B2, “Benzothiazole- and benzooxazole-4,7-dione, derivatives and their use as cdc25 phosphate inhibitors” (Societe de Conseils de Recherches et d'Applications …, priority 2001, dated 2009).

The melting point is the temperature, or range, at which the solid turns liquid.

Data set [1] relates to DU145 (human prostate cancer cells). Description: Antiproliferative activity, WST1 colorimetric test, DU145. Format: cell-based. The following applies: DU-145, 96 hours treatment, up to 10 μM, read-out: Cl50 on the cell proliferation of the lines DU-145. The protocol: (§1) iii) Characterization of the Antiproliferative Activity:
(§2) By way of example, the effect of a treatment on two human cell lines Mia-Paca2 and DU145 by the compounds of the examples described previously will be studied. The cell lines DU145 (human prostate cancer cells) and Mia-PaCa2 (human pancreas cancer cells) were acquired from the American Tissue Culture Collection (Rockville, Md., USA). The cells placed in 80 μl of Dulbecco's Modified Eagle's medium (Gibco-Brl, Cergy-Pontoise, France) completed with 10% foetal calf serum inactivated by heating (Gibco-Brl, Cergy-Pontoise, France), 50,000 units/l of penicillin and 50 mg/l of streptomycin (Gibco-Brl, 10378-057, Cergy-Pontoise, France), and 2 mM of glutamine (Gibco-Brl, Cergy-Pontoise, France) were seeded on a 96-well plate on day 0. The cells were treated on day 1 for 96 hours with increasing concentrations of each of the compounds to be tested up to 10 μM. At the end of this period, quantification of cell proliferation is evaluated by a colorimetric test based on the cleavage of the tetrazolium salt WST1 by the mitochondrial dehydrogenases in viable cells leading to the formation of formazan (Boehringer Mannheim, Meylan, France). These tests are carried out in duplicate with 8 determinations per concentration tested. For each compound to be tested, the values included in the linear part of the sigmoid were retained for a linear regression analysis and used to estimate the inhibitory concentration IC50. The products are solubilized in dimethylsulphoxide (DMSO) at 10^−2 M and used in culture with 0.1% DMSO final.
In general terms: Tetrazolium assays rely on reduction of a dye to a coloured formazan, in cell work by metabolically active cells.

Data set [2] relates to Mia-PaCa2 (human pancreas cancer cells). Description: Antiproliferative activity, WST1 colorimetric test, Mia-PaCa2. Format: cell-based. The following applies: MIA PaCa-2, 96 hours treatment, up to 10 μM, read-out: CI50 on the cell proliferation of the lines Mia-Paca2. As for the experimental part: as §1, §2

Counter-ions that a name gives are not always drawn.

In the case of `CCc1nc2c(o1)C(=O)C(C)=C(NCCN(C)C)C2=O` [Example 55, 5-{[2-(dimethylamino)ethyl]amino}-2-ethyl-6-methyl-1,3-benzoxazole-4,7-dione], the melting point came out at 135 °C. The IC50 in data set [1] is ≤ 10 µM.

For `Cc1nc2c(s1)C(=O)C=C(NCCN1CCCC1)C2=O` [Example 19, 2-methyl-5-[(2-pyrrolidin-1-ylethyl)amino]-1,3-benzothiazole-4,7-dione], in data set [1], the IC50 is ≤ 10 µM.

Turning to `Cc1nc2c(s1)C(=O)C=C(NCCN(C)C)C2=O` [Example 2, 5-{[2-(dimethylamino)ethyl]amino}-2-methyl-1,3-benzothiazole-4,7-dione hydrochloride], the IC50 in data set [1] is ≤ 10 µM.

In the case of `Cc1nc2c(s1)C(=O)C=C(NCCC1CCCN1C)C2=O` (stereo not shown) [Example 24, 2-methyl-5-{[2-(1-methylpyrrolidin-2-yl)ethyl]amino}-1,3-benzothiazole-4,7-dione], the IC50 in data set [1] was ≤ 10 µM.

For `CCCCCC(CC)NC1=CC(=O)c2sc(C)nc2C1=O` (stereo not shown) [Example 6, 5-[(1-ethylhexyl)amino]-2-methyl-1,3-benzothiazole-4,7-dione], the IC50 in data set [1] is ≤ 10 µM.

`Cc1nc2c(s1)C(=O)C=C(NC1CCN(Cc3ccccc3)C1)C2=O` (stereo not shown) [Example 22, 5-[(1-benzylpyrrolidin-3-yl)amino]-2-methyl-1,3-benzothiazole-4,7-dione]: the IC50 in data set [1] is ≤ 10 µM.

Regarding `COCCNC1=CC(=O)c2sc(C)nc2C1=O` [Example 18, 5-[(2-methoxyethyl)amino]-2-methyl-1,3-benzothiazole-4,7-dione], the IC50 in data set [1] is ≤ 10 µM.

For the compound `Cc1nc2c(s1)C(=O)C=C(NCCCCN(C)C)C2=O` [Example 26, 5-{[4-(dimethylamino)butyl]amino}-2-methyl-1,3-benzothiazole-4,7-dione], in data set [1], the IC50 was ≤ 10 µM.

With `Cc1nc2c(s1)C(=O)C=C(NCCN(C(C)C)C(C)C)C2=O` [Example 21, 5-{[2-(diisopropylamino)ethyl]amino}-2-methyl-1,3-benzothiazole-4,7-dione], the IC50 in data set [1] was ≤ 10 µM.

Consider `Cc1nc2c(s1)C(=O)C(Cl)=C(NCCN(C)C)C2=O` [Example 34], for which the IC50 in data set [1] is ≤ 10 µM.

On to `Cc1nc2c(s1)C(=O)C=C(NCCCCCN(C)C)C2=O` [Example 27, 5-{[5-(dimethylamino)pentyl]amino}-2-methyl-1,3-benzothiazole-4,7-dione], for which the IC50 in data set [1] was ≤ 10 µM.

In the case of `Cc1nc2c(s1)C(=O)C=C(NCCCCCCN(C)C)C2=O` [Example 3, 5-{[6-(dimethylamino)hexyl]amino}-2-methyl-1,3-benzothiazole-4,7-dione], the IC50 in data set [1] is ≤ 10 µM.

For `Cc1nc2c(s1)C(=O)C=C(NCc1cccc(Cl)c1)C2=O` [Example 9, 5-[(3-chlorobenzyl)amino]-2-methyl-1,3-benzothiazole-4,7-dione], the IC50 in data set [1] was ≤ 10 µM.

With `CCc1nc2c(o1)C(=O)C(Cl)=C(Nc1ccccc1)C2=O` [Example 16, 5-anilino-6-chloro-2-ethyl-1,3-benzoxazole-4,7-dione], the melting point came out at 159 °C. Moreover, the IC50 in data set [1] was ≤ 10 µM. The IC50 in data set [2] is ≤ 10 µM.

As to `Cc1nc2c(s1)C(=O)C=C(NCCCN1CCCCC1C)C2=O` (stereo not shown) [Example 25, 2-methyl-5-{[3-(2-methylpiperidin-1-yl)propyl]amino}-1,3-benzothiazole-4,7-dione], the IC50 in data set [1] was ≤ 10 µM.

Turning to `CNCCCNC1=CC(=O)c2sc(C)nc2C1=O` [Example 32, 2-methyl-5-{[3-(methylamino)propyl]amino}-1,3-benzothiazole-4,7-dione hydrochloride], in data set [1], the IC50 is ≤ 10 µM.

For the compound `Cc1nc2c(s1)C(=O)C=C(NCCCN(C)C)C2=O` [Example 23, 5-{[3-(dimethylamino)propyl]amino}-2-methyl-1,3-benzothiazole-4,7-dione], the IC50 in data set [1] was ≤ 10 µM.

As to `Cc1nc2c(s1)C(=O)C=C(NCCN1CCOCC1)C2=O` [Example 1, 2-methyl-5-{[2-(4-morpholinyl)ethyl]amino}-1,3-benzothiazole-4,7-dione], the IC50 in data set [1] is ≤ 10 µM.

`Cc1nc2c(s1)C(=O)C=C(NCCN1CCCCC1)C2=O` [Example 20, 2-methyl-5-[(2-piperidin-1-ylethyl)amino]-1,3-benzothiazole-4,7-dione]: in data set [1], the IC50 is ≤ 10 µM.

For `Cc1nc2c(s1)C(=O)C=C(NCCCN1CCN(C)CC1)C2=O` [Example 5, 2-methyl-5-{[3-(4-methyl-1-piperazinyl)propyl]amino}-1,3-benzothiazole-4,7-dione], the IC50 in data set [1] was ≤ 10 µM.

In the case of `CCCCSC1=C(NCCN(C)C)C(=O)c2nc(C)sc2C1=O` [Example 36, 6-(butylthio)-5-{[2-(dimethylamino)ethyl]amino}-2-methyl-1,3-benzothiazole-4,7-dione], in data set [1], the IC50 was ≤ 10 µM.

Consider `Cc1nc2c(s1)C(=O)C=C(NCCCN(C)C(=O)OC(C)(C)C)C2=O` [Example 30, tert-butyl methyl{3-[(2-methyl-4,7-dioxo-4,7-dihydro-1,3-benzothiazole-5-yl)amino]propyl}carbamate], for which the IC50 in data set [1] was ≤ 10 µM.

On to `Cc1nc2c(s1)C(=O)C=C(NCCCNC(=O)OC(C)(C)C)C2=O` [Example 31, tert-butyl 3-[(2-methyl-4,7-dioxo-4,7-dihydro-1,3-benzothiazol-5-yl)amino]propylcarbamate], for which the IC50 in data set [1] is ≤ 10 µM.

Consider `Cc1nc2c(s1)C(=O)C=C(N1CCN(Cc3ccccc3)CC1)C2=O` [Example 14, 5-(4-benzyl-1-piperazinyl)-2-methyl-1,3-benzothiazole-4,7-dione], for which the IC50 in data set [1] was ≤ 10 µM.

The compound `CCc1nc2c(o1)C(=O)C=C(Nc1ccc(F)cc1)C2=O` [Example 17, 2-ethyl-5-[(4-fluorophenyl)amino]-1,3-benzoxazole-4,7-dione] registered a melting point of 232 °C. For the same compound, the IC50 in data set [1] was ≤ 10 µM. In data set [2], the IC50 was ≤ 10 µM.

As for `CN(C)CCNC1=CC(=O)c2sc(CN3CCCCC3)nc2C1=O` [Example 39, 5-{[2-(dimethylamino)ethyl]amino}-2-(piperidin-1-ylmethyl)-1,3-benzothiazole-4,7-dione], the IC50 in data set [1] was ≤ 10 µM.

In the case of `CN(C)CCNC1=CC(=O)c2sc(CN3CCN(c4ccccc4)CC3)nc2C1=O` [Example 38], the IC50 in data set [1] was ≤ 10 µM.

`CN(C)CCNC1=CC(=O)c2sc(CN3CCOCC3)nc2C1=O` [Example 37, 5-{[2-(dimethylamino)ethyl]amino}-2-(morpholin-4-ylmethyl)-1,3-benzothiazole-4,7-dione]: in data set [1], the IC50 is ≤ 10 µM.

For the compound `Cc1nc2c(s1)C(=O)C=C(NCC(C)(C)CN(C)C)C2=O` [Example 4, 5-{[3-(dimethylamino)-2,2-dimethylpropyl]amino}-2-methyl-1,3-benzothiazole-4,7-dione], in data set [1], the IC50 was ≤ 10 µM.

As for `Cc1nc2c(s1)C(=O)C=C(N(CCN(C)C)Cc1ccccc1)C2=O` [Example 29, 5-{benzyl[2-(dimethylamino)ethyl]amino}-2-methyl-1,3-benzothiazole-4,7-dione], the IC50 in data set [1] was ≤ 10 µM.

`Cc1nc2c(s1)C(=O)C=C(NCC13CC4CC(CC(C4)C1)C3)C2=O` [Example 7, 5-[(1-adamantylmethyl)amino]-2-methyl-1,3-benzothiazole-4,7-dione]: the IC50 in data set [1] is ≤ 10 µM.

With `Cc1nc2c(s1)C(=O)C=C(NCc1cccs1)C2=O` [Example 8, 2-methyl-5-[(2-thienylmethyl)amino]-1,3-benzothiazole-4,7-dione], in data set [1], the IC50 was ≤ 10 µM.

Take `Cc1nc2c(s1)C(=O)C=C(NC1CCc3ccccc31)C2=O` (stereo not shown) [Example 28, 5-(2,3-dihydro-1H-inden-1-ylamino)-2-methyl-1,3-benzothiazole-4,7-dione]: the IC50 in data set [1] was ≤ 10 µM.

On to `Cc1nc2c(s1)C(=O)C=C(NCCCN)C2=O` [Example 33, 5-[(3-aminopropyl)amino]-2-methyl-1,3-benzothiazole-4,7-dione], for which the IC50 in data set [1] and in data set [2] was ≤ 10 µM each time.

`CCc1nc2c(o1)C(=O)C=C(Nc1ccccc1)C2=O` [Example 15, 5-anilino-2-ethyl-4,7-dihydrobenzo[d][1,3]oxazole-4,7-dione] yielded a melting point of 200 °C. The IC50 in data set [1] was ≤ 10 µM. Also, the IC50 in data set [2] was ≤ 10 µM.
